Consider ten compounds from patent publication US20140005234A1, “INSECTICIDAL N-SUBSTITUTED SULFILIMINE AND SULFOXIMINE PYRIDINE N-OXIDES” (Dow AgroSciences LLC, priority 2012, published 2014).

The first assay has as its system Green Peach Aphid (GPA). The assay is described as follows: Insecticidal testing for Green Peach Aphid (GPA), foliar spray on infested cabbage seedlings. It counts as in vivo. The arrangement: key to GPA Control @ 200 ppm: A: 80-100; B: More than 0-Less than 80; C: Not Tested; D: No activity noticed in this bioassay. The note with it: 200 ppm test compound sprayed on cabbage seedlings infested with GPA; graded after three days; Abbott-corrected % control, qualitative rating. From the text:
Insecticidal Testing for Green Peach Aphid (GPA) GPA is the most significant aphid pest of peach trees, causing decreased growth, shriveling of the leaves, and the death of various tissues. It is also hazardous because it acts as a vector for the transport of plant viruses, such as potato virus Y and potato leafroll virus to members of the nightshade/potato family Solanaceae, and various mosaic viruses to many other food crops. GPA attacks such plants as broccoli, burdock, cabbage, carrot, cauliflower, daikon, eggplant, green beans, lettuce, macadamia, papaya, peppers, sweet potatoes, tomatoes, watercress, and zucchini, among other plants. GPA also attacks many ornamental crops such as carnation, chrysanthemum, flowering white cabbage, poinsettia, and roses. GPA has developed resistance to many pesticides. Certain compounds disclosed in this document were tested against GPA using procedures described as follows. Cabbage seedlings grown in 3-inch pots, with 2-3 small (3-5 cm) true leaves, were used as test substrate. The seedlings were infested with 20-50 GPA (wingless adult and nymph stages) one day prior to chemical application. Four pots with individual seedlings were used for each treatment. Test compounds (2 mg) were dissolved in 2 mL of acetone/methanol (1:1) solvent, forming stock solutions of 1000 ppm test compound. The stock solutions were diluted 5× with 0.025% Tween® 20 (Sigma-Aldrich, Inc., St. Louis, Mo.) in H2O to obtain the solution at 200 ppm test compound. A hand-held aspirator-type sprayer was used for spraying a solution to both sides of […] leaves until runoff. Reference plants (solvent check) were sprayed with the diluent only containing 20% by volume of acetone/methanol (1:1) solvent. Treated plants were held in a holding room for three days at approximately 25° C. and ambient relative humidity (RH) prior to grading. Evaluation was conducted by counting the number of live aphids per plant under a microscope. Percent Control was measured by using Abbott's correction formula (W. S. Abbott, “A Method of Computing the Effectiveness of an Insecticide” J. Econ. Entomol. 18 (1925), pp. 265-267) as follows: Corrected % Control=100*(X−Y)/X • where • X=No. of live aphids on solvent check plants and • Y=No. of live aphids on treated plants The results provided in Table 6 below are based on the qualitative ratings set forth in Table 5.
In the case of `CS(=O)(Cc1ccc(Cl)[n+]([O-])c1)=N[N+](=O)[O-]` (stereo not shown) [(20)], the “GPA Control @ 200 ppm” value is on record as “D”.

`CS(=O)(Cc1ccc(C(F)(F)F)[n+]([O-])c1)=NC(N)=O` (stereo not shown) [(22)]: the “GPA Control @ 200 ppm” value is “D”.

Consider `CC(c1ccc(Cl)[n+]([O-])c1)S(C)(=O)=NC(N)=O` (stereo not shown) [(23)], for which the “GPA Control @ 200 ppm” value was “D”.

The assay is the same for the next values; noted with them: Myzus persicae, foliar, 72 h; 200 ppm test compound sprayed on cabbage seedlings infested with GPA; graded after three days; Abbott-corrected % control, qualitative rating.
With `CC(c1ccc(C(F)(F)F)[n+]([O-])c1)/S(C)=N\C#N` (stereo not shown) [(5)], the pest or weed control at 200 ppm was in the range of 80 to 100%.

The compound `CS(=O)(Cc1ccc(C(F)(F)F)[n+]([O-])c1)=NC#N` (stereo not shown) [(9), [methyl(oxido){[1-oxido-6-(trifluoromethyl)pyridin-3-yl]methyl}-λ^6-sulfanylidene]cyanamide] registered a pest or weed control at 200 ppm of 80 to 100%.

`CC(C)(c1ccc(C(F)(F)F)[n+]([O-])c1)S(C)(=O)=NC#N` (stereo not shown) [(10)]: the pest or weed control at 200 ppm lay in the range of 80 to 100%.

`CC(c1ccc(Cl)[n+]([O-])c1)S(C)(=O)=N[N+](=O)[O-]` (stereo not shown) [(18)]: the pest or weed control at 200 ppm lay in the range of 0 to 80%.

Compound `CC(c1ccc(Cl)[n+]([O-])c1)S(C)(=O)=NC#N` (stereo not shown) [(19)] yielded a pest or weed control at 200 ppm of 80 to 100%.

In turn, `CC(c1ccc(C(F)(F)F)[n+]([O-])c1)S(C)(=O)=N[N+](=O)[O-]` (stereo not shown) [(21)] gave a pest or weed control at 200 ppm of 80 to 100%.

Regarding `CC(c1ccc(C(F)(F)F)[n+]([O-])c1)S(C)(=O)=NC#N` (stereo not drawn) [Compound (6), N-Cyano-S-[1-(6-trifluoromethyl-3-pyridinyl)ethyl]-S-methylsulfoximine N-oxide], the pest or weed control at 200 ppm lay in the range of 80 to 100%.

The term pest or weed control denotes the degree to which the test organism was suppressed or injured, in per cent.
